Experimental data: US20070254843A1, “Methods for treating bone associated diseases by the use of methionine aminopeptidase-2 inhibitors” (Praecis Pharmaceuticals Incorporated, priority 2006, published 2007)

Experiments:
[1] = molecular target: T1, MetAP-2 (Rattus norvegicus, UniProt P38062); test: MetAP-2 pharmacodynamic assay in wbc lysates; format: in vivo; conditions: po, PG-PS arthritis rats, 1 mg/kg p.o. qod, read-out: MetAP-2 in wbc inhibited relative to vehicle-treated group
T1 construct: wbc from animals of each study group were pooled and cell lysates were prepared as previously described; from tissue; host or cells: white blood cells (wbc) of female Lewis rats, pooled per study group and lysed
T1 sequence (P38062 whole entry): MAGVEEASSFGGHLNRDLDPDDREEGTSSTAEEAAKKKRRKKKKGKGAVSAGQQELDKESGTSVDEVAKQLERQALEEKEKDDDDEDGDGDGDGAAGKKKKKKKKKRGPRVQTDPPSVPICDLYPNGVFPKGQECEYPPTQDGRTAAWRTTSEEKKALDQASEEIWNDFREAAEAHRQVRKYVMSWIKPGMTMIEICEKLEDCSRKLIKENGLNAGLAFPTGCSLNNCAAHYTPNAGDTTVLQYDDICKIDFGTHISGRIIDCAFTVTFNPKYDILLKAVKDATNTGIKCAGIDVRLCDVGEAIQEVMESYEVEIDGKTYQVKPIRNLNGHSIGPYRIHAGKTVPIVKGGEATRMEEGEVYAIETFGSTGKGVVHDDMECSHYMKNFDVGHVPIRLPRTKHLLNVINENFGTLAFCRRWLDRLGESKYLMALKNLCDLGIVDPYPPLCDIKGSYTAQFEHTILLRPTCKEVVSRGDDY
Method: MetAP-2 pharmacodynamic assay. The MetAP-2 assay measures the amount of uninhibited MetAP-2 in cells or tissues which has not been derivitized by prior treatment with the MetAP-2 inhibitor (Bernier (2004) Proc. Natl. Acad. Sci. USA 101: 10768-10773 and Bernier (2005) J. Cell. Biochem. 95: 1191-1203). Briefly, wbc from animals of each study group were pooled and cell lysates were prepared as previously described (Bernier (2004) Proc. Natl. Acad. Sci. USA 101: 10768-10773 and Bernier (2005) J. Cell. Biochem. 95: 1191-1203). 10 μg to 20 μg of wbc protein was incubated with a biotinylated analog of the MetAP-2 inhibitor which covalently binds to the catalytic site of MetAP-2. The biotinylated MetAP-2-inhibitor complex was captured on a plate with immobilized streptavidin (Pierce), and detected with the MetAP-2 antibody CM33 (0.5 μg/ml), followed by horseradish peroxidase-conjugated goat anti-rabbit IgG secondary antibody. The amount of uninhibited MetAP-2 was determined by measuring the absorption at 450 nm using a Labsystems Multiskan plate spectrophotometer. Human recombinant MetAP-2 (Mediomics), pre-bound to the biotinylated MetAP-2 inhibitor, was used to generate the standard curve. The detection limit of this assay was 0.47 ng MetAP-2 protein/mg wbc protein.
Since the MetAP-2 inhibitor had the ability to inhibit multiple cell types critical for pathogenesis of the bone associated disease, RA, in vitro, it was hypothesized that the observations from the in vitro studies (Example 1) would translate into protection from disease in animals in the PG-PS model of arthritis. The progression of disease in this model follows a biphasic mode, with an early acute, predominantly neutrophil-driven phase which persists to days 6-7, followed by a chronic, T cell dependent phase (evident around day 12), which is characterized by chronic inflammation and erosive synovitis (Palombella (1998) Proc. Natl. Acad. Sci. USA 95:15671-15676). Therapeutic dosing of animals administered the MetAP-2 inhibitor orally (p.o.) at 1, 5 and 10 mg/kg, every other day (qod), or vehicle started at day 15 after the chronic destructive phase of the disease was established and terminated on day 31. […] The amount of uninhibited MetAP-2 in wbc of animals from all treatment groups was measured after conclusion of the study, using the MetAP-2 pharmacodynamic assay (Bernier (2004) Proc. Natl. Acad. Sci. USA 101: 10768-10773 and Bernier (2005) J. Cell. Biochem. 95: 1191-1203). […]

[2] = system: PG-PS-induced arthritis; test: Clinical (histopathological) assessment of PG-PS arthritis, joint histology score; format: in vivo, rat; conditions: PG-PS arthritis, 1 mg/kg
Method: Clinical assessment of PG-PS arthritis. The histopathological evaluation was performed on the left and right hind joints of randomly selected animals from each study group by an independent histopathologist without knowledge of specific interventions. After completion of the study, the left and right hind ankles were removed, fixed in 10% buffered formalin, decalcified in 5% formic acid, paraffin-embedded, sectioned, and H&E stained for histological evaluation. A joint histology scoring system which grades the severity of 4 histopathological processes (cell infiltration, pannus formation, cartilage erosion, bone resorption), was used to quantify hind joint involvement in the PG-PS arthritis model (36). Dependent on the assigned score for each parameter (0=normal, 1=minimal, 2=mild, 3=moderate, 4=marked), the maximum total score per ankle is 16, and 32 per animal.
It was investigated whether the protective activity of the MetAP-2 inhibitor in this animal model of arthritis, which is characterized by aggressive synovitis, extensive pannus formation, cartilage degradation and focal bone erosion, was mediated through regression in the severity of all clinical indices tested, or whether this activity was targeting specific pathogenic processes.
A joint histology scoring system which grades the severity of 4 histopathological processes (cell infiltration, pannus formation, cartilage erosion, bone resorption) was used (O'Byrne (1991) Agents and Actions 134:239-241).

[3] = system: PG-PS-induced arthritis; test: Microfocal computed tomography of hind joints in rat PG-PS arthritis model; format: in vivo; conditions: PG-PS arthritis, 1 mg/kg; threshold 255
Method: Microfocal computed tomography. All specimens were scanned on a Scanco Medical AG μCT 40 system. Images were obtained with an isotropic voxel resolution of 20 microns. A matrix size of 1024×1024 with 1000 projections was utilized for all scans. A total of 1836 slices were scanned for each specimen (the number of slices scanned was determined by the length of the scan needed to cover the entire ankle including the distal tibia). The scan time per specimen was approximately 2.6 hours. The images were then volume rendered using a fixed threshold (at two different thresholds: 255 and 140). The total bone volume and BMD were calculated over the same regions of all the specimens. Micro-CT was performed at Scanco USA, Incorporated.
Finally, the activity of the MetAP-2 inhibitor on the structural preservation of hind joints in rats with established disease was investigated.
The ankles including the distal tibia were scanned using a Scanco Medical AG μCT 40 system (threshold: 255), and the total bone volume and BMD were calculated over the same regions of all specimens.

For C[C@@H]1C[C@H]2[C@@H]3CCC4=CC(=O)C=C[C@]4(C)[C@@]3(F)[C@@H](O)C[C@]2(C)[C@@]1(O)C(=O)CO [dex, dexamethasone, reference compound], which inhibition at 1 mg/kg [1] is on record?
The inhibition at 1 mg/kg was at least 90%.

And the Total arthritis score [2]?
Its Total arthritis score is 2.35 ± 0.23^B.

And the “Bone Resorption score” value ([2]; score 0-4)?
Its value is 0.95 ± 0.13^B.

What about the Cartilage erosion score ([2]; score 0-4) of the same molecule?
The Cartilage erosion score was 0.60 ± 0.14^B.

What about the Cell infiltration score ([2]; score 0-4) of the same molecule?
Its Cell infiltration score is 0.25 ± 0.08^A.

What about the Pannus formation score ([2]; score 0-4) of the same molecule?
The Pannus formation score was 0.55 ± 0.08^A.

What about the BMD [3] of the same molecule?
The BMD was 1125 ± 2.59 mg HA/ccm.

And the “Bone Volume (Vox-BV)” value [3]?
The value was 240.7 ± 12.68.
